Reference: patent US8409166B2, “Method for pressure mediated selective delivery of therapeutic substances and cannula” (The United States of America as represented by the …, priority 1998, dated 2013)

Key:
[1] = test system: intrahepatic tight junctions; test: Constant pressure retrograde biliary infusion in mice (flow rate, resistance, paracellular leakage); settings: for Ave Counts (paracellular leakage): Cholestatic 04 day mice
From the text: FIG. 35 is a diagram of a working example of a system for constant-pressure intralumenal delivery. […] A working model was regulated using an adaptation of a Cole-Palmer pressure controller. Infusion fluid from the reservoir flows through capillary glass tubes 224 on its way to an infusion line 226. Flow rates may then be determined by tracking air bubbles 228 in the capillary glass tubes 224 with a ruler 229. A pressure sensor 230 detects the pressure of the infusion fluid at a location near the infusion line 226.
To set up the system, fluid was added to the reservoir, and the system was rinsed and filled with fluid. The infusion line 226 was then surgically placed into the animal's organ. […] By adjusting the controller setting the desired pressure could be obtained at the pressure sensor, which was kept at the same height (z=0) as the animal. The reading at the pressure sensor was thus equal to the applied pressure (the pump pressure) plus the pressure head (the pressure increase due to the change in height between the top of the liquid level in the reservoir and the height of the infusion line). The infusion line was kept at the same height as the pressure sensor and the animal on the operating table. Alternate systems could be of course be adapted in which a constant pressure is maintained at the pressure sensor and not at the top of the Reservoir. This would be most important when a large volume of fluid is infused.
The flow rate of infusion fluid was experimentally recorded in the following way: the cross sectional area of the bubble tube was determined by injecting a known volume of water (from syringe 232) into a measured length of the bubble tube. The cross sectional area was 0.0233 cm^2 (0.35 cc in 15 cm). When the flow started, an air bubble was slowly injected into the infusion fluid flow. The bubble then traveled down the bubble tube. At the end of the tube, the bubble would rise up into the bubble trap 234 and displace an equal volume of liquid. For each bubble 25 time points were recorded, on 1-cm intervals of ruler 229. The time versus distance that the bubble had traveled could be plotted and the slope of this line was the velocity of the bubble. Multiplying the slope by the cross sectional area of the bubble tube gave the average flow rate of the infusion fluid. This method of flow rate measurement is a working and experimental model for the purpose of illustration. In practice, flow rates may also be determined by ultrasonic or other methods known to those of skill in the art.
Constant pressure infusion was evaluated in mice using the retrograde biliary infusion setup described previously. The constant pressure device was substituted for the microinfusion pump. […] Infusion flow rates were recorded using the bubble tube method described above. Blood samples were obtained and evaluated as described above.
Solutes evaluated included sucrose (molecular weight 370), inulin (molecular weight 5,200), and Dextran (molecular weight 70,000).

[2] = test system: interhepatocyte tight junctions; test: Retrograde biliary infusion of lanthanum chloride, electron microscopy of intrahepatic distribution; type: in vivo, mice; settings: 720 μl of 5 mM at 2 or 8 μl/second
Description: Movement of fluid from the intralumenal space may conceivably occur either directly across physically opened tight junctions or indirectly by altered rates of transepithilial transcytosis. […] The ability of retrograde biliary infusion to disrupt tight junctions was evaluated by qualitative ultrastructural examination of the intrahepatic distribution of lanthanum chloride, a heavy metal normally impermeant to structurally intact tight junctions.
Animals were infused retrograde with either 5 mM lanthanum chloride (Sigma) or 0.9% NaCl vehicle. Three infusions of 240 μl volume were administered per animal at a rate of 2 or 8 μl/second, with a 10 second pause between infusions. Freshly removed tissue was fixed overnight in 2% glutaraldehyde in 0.2 M cacodylate buffer. Following standard processing and embedding, 0.5 micrometer thick sections were stained with uranyl acetate and lead citrate. Sections were then examined using a Philips 201 Electron Microscope.

[3] = test system: urinary bladder epithelial cell tight junctions; test: Intralumenal delivery to the rabbit urinary bladder (electron and fluorescent microscopy); type: in vivo, Dutch Belted Rabbits; settings: 5 mM, 10 minutes
From the text: As an experimental model to mimic retrourethral delivery, male Dutch Belted Rabbits (1-2 Kg BW) had PE-50 tubing placed in the lumen of each […] and advanced so that the tips were within the lumen of the urinary bladder. One ureteral catheter was connected to a pressure transducer and used for recording intralumenal pressure. The other ureteral catheter was connected to a microinfusion pump. Microvascular clips were placed on the ureters to prevent retrograde reflux. The urethra was occluded using a vascular loop. 5 mM Lanthanum Chloride was infused so that the intralumenal pressure was either 25 mm Hg or 50 mm Hg.
Tissues were removed 10 minutes later and processed for electron microscopy. […] Following the administration of 200 nm fluorescent latex microspheres at 50 mm-[…] intralumenal pressure, the urinary bladder was removed and processed for fresh-frozen sections.

[4] = constant pressure retrograde biliary infusion

## OC[C@H]1O[C@@](CO)(O[C@H]2O[C@H](CO)[C@@H](O)[C@H](O)[C@H]2O)[C@@H](O)[C@@H]1O [[14C]-sucrose]
[1]; mouse, in vivo
  appearance in systemic bloodstream: detected in the systemic bloodstream

## [Cl][La]([Cl])[Cl] [lanthanum chloride]
[2]
  electron dense deposits at bile ducts: found within bile ducts but not in their adjacent subepithelial tissue compartments
  electron dense deposits at canaliculi and subepithelial compartments: within biliary canaliculi, interhepatocyte cell spaces, and the perisinusoidal Space of Disse
[3]; intralumenal pressure 25 mm Hg
  electron microscopy finding in urinary bladder: electron dense deposits were detected in the intercellular spaces between epithelial cells
[3]; intralumenal pressure 50 mm Hg
  electron microscopy finding in urinary bladder: some evidence of patchy epithelial denudation

## Dextran
[1]; [4]
  appearance in systemic bloodstream: detected in the systemic bloodstream

## [14C]-inulin
[1]; 10 mmHg
  Ave Counts (paracellular leakage): 27
[1]; 20 mmHg
  Ave Counts (paracellular leakage): 2534
[1]; 40 mmHg
  Ave Counts (paracellular leakage): 20134
[1]; [4]
  appearance in systemic bloodstream: detected in the systemic bloodstream
